Data from US20250367109A1, “DEVICES, SYSTEMS, AND METHODS FOR IMPROVED BONE REMODELING” (UNIVERSITY OF UTAH RESEARCH FOUNDATION, priority 2024, published 2025).

Experiment: local elution of estradiol from implant in left proximal humerus; estradiol concentration in tendon tissue samples by mass spectroscopy
Format: in vivo, wild-type rats
Settings: one week after implantation into left proximal humerus; compared with right rotator cuff, left and right Achilles tendon; 200 micrograms estradiol load
Text: Drug-eluting implants analogous to drug-eluting implant 200 were comprised of polycaprolactone and estradiol. The drug-eluting implants were in the form of a cylinder 1 mm in diameter and 5 mm long, and loaded with 200 micrograms of estradiol. The drug-eluting implants were implanted into the left proximal humeri of wild-type rats. One week following implantation, the animals were euthanized and tendon tissue samples were collected at the following sites: left rotator cuff (target site), right rotator cuff, left Achilles tendon, and right Achilles tendon. Mass spectroscopy was used to determine the estradiol concentration in the tissue samples, and the results are provided in an estradiol concentration chart 300.

## C[C@]12CC[C@@H]3c4ccc(O)cc4CC[C@H]3[C@@H]1CC[C@@H]2O [estradiol]
  estradiol concentration in left rotator cuff tissue (target site) relative to remote tendon sites: significantly higher local estradiol concentrations at the target region relative to other regions
